Counter-ions that a name gives are not always drawn.
biological target: T1, recombinant guanylate cyclase reporter cell line (Rattus norvegicus, UniProt P19686+P20595); assay: B-2. Action on recombinant guanylate cyclase reporter cell line; assay type: cell-based; conditions: MEC = minimal effective concentration; in some cases mean values from individual determinations
T1 construct: expressed in transfected cells
T1 sequence (P20595 1-619): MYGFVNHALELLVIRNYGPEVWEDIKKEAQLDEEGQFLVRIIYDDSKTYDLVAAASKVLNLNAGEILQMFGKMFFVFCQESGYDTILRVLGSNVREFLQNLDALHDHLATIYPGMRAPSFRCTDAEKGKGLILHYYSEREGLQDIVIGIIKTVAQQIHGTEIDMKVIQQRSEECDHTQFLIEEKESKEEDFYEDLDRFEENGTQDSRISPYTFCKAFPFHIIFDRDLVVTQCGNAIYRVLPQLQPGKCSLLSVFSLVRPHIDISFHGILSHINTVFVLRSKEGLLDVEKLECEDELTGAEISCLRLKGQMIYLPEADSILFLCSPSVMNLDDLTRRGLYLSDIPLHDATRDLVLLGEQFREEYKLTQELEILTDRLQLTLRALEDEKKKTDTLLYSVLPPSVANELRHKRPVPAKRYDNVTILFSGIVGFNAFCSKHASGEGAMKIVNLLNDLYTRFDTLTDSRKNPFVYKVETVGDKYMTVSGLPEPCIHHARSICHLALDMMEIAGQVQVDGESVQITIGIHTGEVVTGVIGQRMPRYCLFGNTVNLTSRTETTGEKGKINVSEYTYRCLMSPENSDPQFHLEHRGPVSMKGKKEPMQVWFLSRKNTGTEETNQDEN
T1 sequence (P19686 1-690): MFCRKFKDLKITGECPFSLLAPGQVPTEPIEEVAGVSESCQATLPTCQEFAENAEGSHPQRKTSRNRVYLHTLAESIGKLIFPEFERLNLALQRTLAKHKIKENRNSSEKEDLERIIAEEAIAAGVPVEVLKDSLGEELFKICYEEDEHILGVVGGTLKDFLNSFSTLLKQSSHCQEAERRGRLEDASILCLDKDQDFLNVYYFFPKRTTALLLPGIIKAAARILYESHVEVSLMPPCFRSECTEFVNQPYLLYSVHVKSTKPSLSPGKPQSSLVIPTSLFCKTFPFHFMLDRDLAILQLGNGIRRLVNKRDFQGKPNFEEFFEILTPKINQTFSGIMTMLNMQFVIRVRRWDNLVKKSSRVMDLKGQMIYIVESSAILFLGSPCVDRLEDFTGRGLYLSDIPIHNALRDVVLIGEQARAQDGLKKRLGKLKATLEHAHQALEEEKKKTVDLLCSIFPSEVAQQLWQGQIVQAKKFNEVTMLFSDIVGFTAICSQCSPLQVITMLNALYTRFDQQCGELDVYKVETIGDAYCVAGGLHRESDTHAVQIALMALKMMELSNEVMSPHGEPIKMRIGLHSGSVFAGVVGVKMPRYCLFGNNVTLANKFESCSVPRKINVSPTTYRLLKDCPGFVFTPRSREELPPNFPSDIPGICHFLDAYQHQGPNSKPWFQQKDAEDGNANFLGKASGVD
How it was run: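 Reported value is the minimal effective concentration (MEC), in some cases a mean of single runs, taken from a recombinant rat guanylate cyclase reporter cell line.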

MEC [µM]	SMILES
0.30	Cc1cc(OCc2c(F)cccc2F)c2nc(C)c(C(=O)NCC(C)(N)C(F)(F)F)n2c1 (single isomer, unassigned) [Example 240, ent-N-(2-Amino-3,3,3-trifluoro-2-methylpropyl)-8-[(2,6-difluorobenzyl)oxy]-2,6-dimethylimidazo-[1,2-a]pyridine-3-carboxamide]
0.30	Cc1cc(OCc2c(F)cccc2F)c2nc(C)c(C(=O)NCC(C)N3CCOCC3)n2c1 (single isomer, unassigned; ent-8) [Example 186, ent-8-[(2,6-Difluorobenzyl)oxy]-2,6-dimethyl-N-[2-(morpholin-4-yl)propyl]imidazo[1,2-a]-pyridine-3-carboxamide]
0.30	Cc1cc(OCc2c(F)cccc2F)c2nc(C)c(C(=O)NC[C@H]3CCCCN3)n2c1 [Example 173, 8-[(2,6-Difluorobenzyl)oxy]-2,6-dimethyl-N-[(2R)-piperidin-2-ylmethyl]imidazo[1,2-a]pyridine-3-carboxamide]
0.30	Cc1cc(OCc2c(F)cccc2F)c2nc(C)c(C(=O)NCC(N)C(C)C)n2c1 (single isomer, unassigned) [Example 223, ent-N-(2-Amino-3-methylbutyl)-8-[(2,6-difluorobenzyl)oxy]-2,6-dimethylimidazo[1,2-a]pyridine-3-carboxamide]
0.30	Cc1cc(OCc2c(F)cccc2F)c2nc(C)c(C(=O)NC3CC(C)(C)C3N)n2c1 (mixture of isomers) [Example 358, N-(2-amino-3,3-dimethylcyclobutyl)-8-[(2,6-difluorobenzyl)oxy]-2,6-dimethylimidazo[1,2-a]pyridine-3-carboxamide Formate (Isomer Mixture)]
0.10	[2H]C([2H])(Oc1cccn2c(C(=O)NC(CN)c3ccc(F)c(F)c3)c(C)nc12)c1c(F)cccc1F (stereo not drawn) [Example 97, ent-N-[2-Amino-1-(3,4-difluorophenyl)ethyl]-8-{[(2,6-difluorophenyl) (^2H2)methyl]oxy}-2-methylimidazo[1,2-a]pyridine-3-carboxamide]
0.10	Cc1cc(OCc2c(F)ccc(F)c2F)c2nc(C)c(C(=O)NCC(C)(C)N)n2c1 [Example 276, N-(2-Amino-2-methylpropyl)-2,6-dimethyl-8-[(2,3,6-trifluorobenzyl)oxy]imidazo[1,2-a]pyridine-3-carboxamide]
0.30	Cc1nc2c(OCC3CCCCC3)cccn2c1C(=O)NC(CN)c1ccc(F)c(F)c1 (single isomer, unassigned) [Example 178, ent-N-[2-Amino-1-(3,4-difluorophenyl)ethyl]-8-(cyclohexylmethoxy)-2-methylimidazo[1,2-a]-pyridine-3-carboxamide]
3.00	CC(=O)Nc1cccc(C(CN)NC(=O)c2c(C)nc3c(OCc4c(F)cccc4F)cc(C)cn23)c1 (racemic) [Example 396, rac-N-[1-(3-acetamidophenyl)-2-aminoethyl]-8-[(2,6-difluorobenzyl)oxy]-2,6-dimethylimidazo[1,2-a]pyridine-3-carboxamide]
1.00	CCCC[C@H](CN1CCCC1)NC(=O)c1c(C)nc2c(OCc3c(F)cccc3F)cccn12 [Example 66, ent-8-[(2,6-difluorobenzyl)oxy]-2-methyl-N-[(2R)-1-(pyrrolidin-1-yl)hexan-2-yl]imidazo[1,2-a]-pyridine-3-carboxamide]
0.10	Cc1cc(OCc2c(F)cccc2F)c2nc(C)c(C(=O)NCC(C)(N)CC(C)C)n2c1 (single isomer, unassigned) [Example 220, ent-N-(2-Amino-2,4-dimethylpentyl)-8-[(2,6-difluorobenzyl)oxy]-2,6-dimethylimidazo[1,2-a]-pyridine-3-carboxamide]
3.00	COCCNCCNC(=O)c1c(C)nc2c(OCc3c(F)cccc3F)cccn12 [Example 144, 8-[(2,6-difluorobenzyl)oxy]-N-{2-[(2-methoxyethyl)amino]ethyl}-2-methylimidazo[1,2-a]pyridine-3-carboxamide]
0.30	CCCC(C)(N)CNC(=O)c1c(C2CC2)nc2c(OCc3c(F)cccc3F)cc(C)cn12 (stereo not drawn) [Example 322, ent-N-(2-amino-2-methylpentyl)-2-cyclopropyl-8-[(2,6-difluorobenzyl)oxy]-6-methylimidazo[1,2-a]pyridine-3-carboxamide]
1.00	Cc1nc2c(OCc3c(F)cccc3F)cccn2c1C(=O)NCC(N)C(F)(F)C(F)F (racemic) [Example 230, rac-N-(2-Amino-3,3,4,4-tetrafluorobutyl)-8-[(2,6-difluorobenzyl)oxy]-2-methylimidazo[1,2-a]-pyridine-3-carboxamide]
1.00	Cc1cc(OCc2c(F)cccc2F)c2nc(C)c(C(=O)NCC(C)(N)COc3ccc(F)c(F)c3)n2c1 (racemic) [Example 350, rac-N-[2-amino-3-(3,4-difluorophenoxy)-2-methylpropyl]-8-[(2,6-difluorobenzyl)oxy]-2,6-dimethylimidazo[1,2-a]pyridine-3-carboxamide]
1.00	Cc1nc2c(OCc3c(F)cccc3F)cccn2c1C(=O)NCC(N)C(F)(F)F (racemic) [Example 207, rac-N-(2-Amino-3,3,3-trifluoropropyl)-8-[(2,6-difluorobenzyl)oxy]-2-methylimidazo[1,2-a]-pyridine-3-carboxamide]
1.66	Cc1nc2c(OCc3c(F)cccc3F)cccn2c1C(=O)NC(C)CN (single isomer, unassigned; enantiomer a) [Example 19, ent-N-(1-Aminopropan-2-yl)-8-[(2,6-difluorobenzyl)oxy]-2-methylimidazo[1,2-a]pyridine-3-carboxamide (Enantiomer A)]
0.30	Cc1cc(OCc2c(F)cccc2F)c2nc(C)c(C(=O)NCC(C)(N)Cc3ncn(-c4cc(C)on4)n3)n2c1 (racemic) [Example 321, rac-N-{2-amino-2-methyl-3-[1-(5-methyl-1,2-oxazol-3-yl)-1H-1,2,4-triazol-3-yl]propyl}-8-[(2,6-difluorobenzyl)oxy]-2,6-dimethylimidazo[1,2-a]pyridine-3-carboxamide]
0.30	Cc1nc2c(OCc3c(F)cccc3F)cc(Cl)cn2c1C(=O)NC1CNCc2ccccc21 (single isomer, unassigned; ent-6) [Example 107, ent-6-chloro-8-[(2,6-difluorobenzyl)oxy]-2-methyl-N-(1,2,3,4-tetrahydroisoquinolin-4-yl)imidazo[1,2-a]pyridine-3-carboxamide]
0.30	COCC(C)(N)CNC(=O)c1c(C)nc2c(OCc3c(F)cccc3F)cc(C)cn12 (single isomer, unassigned) [Example 198, ent-N-(2-Amino-3-methoxy-2-methylpropyl)-8-[(2,6-difluorobenzyl)oxy]-2,6-dimethylimidazo-[1,2-a]pyridine-3-carboxamide]
1.00	Cc1nc2c(OCc3c(F)cccc3F)cccn2c1C(=O)NC1CCNc2ccc(C(F)(F)F)cc21 (single isomer, unassigned; ent-8) [Example 111, ent-8-[(2,6-difluorobenzyl)oxy]-2-methyl-N-[6-(trifluoromethyl)-1,2,3,4-tetrahydroquinolin-4-yl]imidazo[1,2-a]pyridine-3-carboxamide]
1.00	CCCC[C@H](CNCCOC)NC(=O)c1c(C)nc2c(OCc3c(F)cccc3F)cccn12 [Example 70, ent-8-[(2,6-difluorobenzyl)oxy]-N-{(2R)-1-[(2-methoxyethyl)amino]hexan-2-yl}-2-methylimidazo[1,2-a]pyridine-3-carboxamide]

SMILES	MEC [µM]
Cc1nc2c(OCc3c(F)cccc3F)cccn2c1C(=O)NC1CC2CCCC(C1)N2C1CC1 (stereo not drawn) [Example 1, N-(9-Cyclopropyl-9-azabicyclo[3.3.1]non-3-yl)-8-[(2,6-difluorobenzyl)oxy]-2-methylimidazo[1,2-a]pyridine-3-carboxamide]	0.10
CCN1C2CCCC1CC(NC(=O)c1c(C)nc3c(OCc4c(F)cccc4F)cccn13)C2 (stereo not drawn) [Example 71, 8-[(2,6-Difluorobenzyl)oxy]-N-(9-ethyl-9-azabicyclo[3.3.1]non-3-yl)-2-methylimidazo[1,2-a]-pyridine-3-carboxamide]	0.30

From patent US9624214B2, “Amino-substituted imidazo[1,2-a]pyridinecarboxamides and their use” (BAYER PHARMA AKTIENGESELLSCHAFT, priority 2012, dated 2017)
